pIC50: −log10 of the molar value.
Experiments:
[1] = target: T1, biotinylated truncated STAT6 (123-632)-avi (Homo sapiens, UniProt P42226); assay: STAT6 HTRF binding assay; conditions: 0.15 nM biotinylated truncated STAT6 (123-632)-avi, 20 nM fluorescein-labeled probe
T1 construct: biotinylated truncated STAT6 (123-632)-avi purified from E. coli; made in house; host or cells: E. coli
T1 sequence (P42226 123-632 limits assumed): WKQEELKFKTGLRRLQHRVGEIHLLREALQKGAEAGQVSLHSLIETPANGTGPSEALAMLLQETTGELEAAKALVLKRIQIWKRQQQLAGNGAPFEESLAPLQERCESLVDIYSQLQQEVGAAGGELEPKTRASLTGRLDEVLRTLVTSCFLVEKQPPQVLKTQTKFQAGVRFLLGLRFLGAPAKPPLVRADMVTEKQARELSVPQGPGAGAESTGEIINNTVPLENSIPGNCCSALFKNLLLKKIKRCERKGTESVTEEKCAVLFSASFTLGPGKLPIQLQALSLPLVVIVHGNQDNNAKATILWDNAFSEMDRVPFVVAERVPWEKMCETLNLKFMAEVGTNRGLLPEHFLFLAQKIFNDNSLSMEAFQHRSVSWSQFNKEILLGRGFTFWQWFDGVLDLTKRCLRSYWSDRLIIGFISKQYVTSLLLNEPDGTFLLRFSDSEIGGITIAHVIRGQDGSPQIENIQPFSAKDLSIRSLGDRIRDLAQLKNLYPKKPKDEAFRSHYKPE
Method: HTRF binding assays were performed using 0.15 nM biotinylated truncated STAT6 (123-632)-avi purified from E. coli, 1× Streptavidin-terbium (CisBio) prepared by mixing SA-Tb in PPI detection buffer (CisBio), 20 nM proprietary fluorescein-labeled probe, and test compounds in assay buffer consisting of 50 mM HEPES-Na pH 7.5, 100 mM NaCl, 1 mM EDTA, 2 mM DTT, 0.1% Tween-20 with a final volume of 20 uL. Compound stocks were dissolved at 10 mM in 100% DMSO and 11 point titration with 3 fold serial dilution was performed in white, opaque 384 well microplates. Reaction plates were incubated at room temperature for 30 minutes. Plates were centrifuged at low rpm for 5 mins, and the ratio of fluorescence intensities were measured at emission wavelengths for fluorescein acceptor (520 nm) and terbium donor (495 nm) on Envision Plate reader. % Inhibition was calculated from the 520/495 ratio generated by using proprietary positive control compound for 100% inhibition and DMSO only reactions for 0% inhibition. Data was processed and dose response curves were generated using GraphPad Prism to determine the concentration required for inhibiting 50% of the HTRF signal (IC50).
The letter codes for IC50 (μM) include: A (<0.1 μM); B (0.1-1 μM); C (>1-10 μM); D (>10-100 μM); E (>100 μM); and F (not tested).

STAT6 = target: T2, STAT6 (Homo sapiens, UniProt P42226); assay: STAT6 MSD degradation in A549 cells; type: cell-based; conditions: 24 h
T2 construct: endogenous in cells; host or cells: A549
T2 sequence (P42226 1-847): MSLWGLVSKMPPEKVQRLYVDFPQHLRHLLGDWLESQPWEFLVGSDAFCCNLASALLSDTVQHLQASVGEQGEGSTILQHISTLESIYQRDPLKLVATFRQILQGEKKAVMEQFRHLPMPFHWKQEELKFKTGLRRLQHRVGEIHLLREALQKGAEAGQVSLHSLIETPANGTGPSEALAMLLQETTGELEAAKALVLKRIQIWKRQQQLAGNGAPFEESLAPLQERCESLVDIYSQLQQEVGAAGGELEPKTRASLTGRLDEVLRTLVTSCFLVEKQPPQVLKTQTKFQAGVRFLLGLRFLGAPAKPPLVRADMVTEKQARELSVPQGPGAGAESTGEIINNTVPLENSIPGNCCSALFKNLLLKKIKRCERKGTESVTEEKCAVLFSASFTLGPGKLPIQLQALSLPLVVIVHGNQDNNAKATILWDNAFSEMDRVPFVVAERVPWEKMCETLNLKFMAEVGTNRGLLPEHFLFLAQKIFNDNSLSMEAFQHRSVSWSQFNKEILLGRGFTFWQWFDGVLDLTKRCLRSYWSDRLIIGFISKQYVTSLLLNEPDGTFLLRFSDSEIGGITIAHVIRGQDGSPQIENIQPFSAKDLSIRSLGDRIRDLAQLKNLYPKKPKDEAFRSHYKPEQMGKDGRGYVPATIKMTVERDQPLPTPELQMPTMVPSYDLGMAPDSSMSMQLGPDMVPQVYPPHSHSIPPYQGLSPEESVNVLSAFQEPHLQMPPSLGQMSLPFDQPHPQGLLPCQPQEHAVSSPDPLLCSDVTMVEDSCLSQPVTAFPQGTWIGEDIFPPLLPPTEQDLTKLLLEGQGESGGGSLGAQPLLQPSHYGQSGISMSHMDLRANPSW
Method: Degradation of STAT6 in cells was quantitatively measured using Meso Scale Discovery (MSD) technology. A549 cells were seeded in 96-well plates with a density of 1.5×10e4 to 5×10e5 cells per well in 100 μl fresh media. Compounds were then added to the assay plates with a final top concentration of up to 10 uM in a 1:3 dilution series with total of 9 doses. The assay plates were then incubated for 4 to 24 hours at 37° C. under 5% CO2. The assay plates were then centrifuged for 5 minutes and the cell pellets were treated with 100 μl/well RIPA lysis buffer (Boston Bioproducts, BP-115D) with protease and phosphatase inhibitors (Roche, 05892791001 and 04906837001). To prepare the MSD assay plates (MSD, L15XA), the plates were coated with the capture antibody (Abnova, H00006778) in PBS, at 40 μl/well. The plates were then incubated overnight at 4° C., washed 1 time with 150 μl/well TBST buffer (Cell Signaling Technology, #9997S) and blocked with 150 μl/well blocking buffer (MSD, R93BA-4). Cell lysates were then added to MSD assay plates and the plates were incubated at room temperature for 1 hour. The plates were then washed 3 times with 150 μl/well TBST buffer and 25 μl/well primary detection antibody (Cell Signaling Technology, #5397S). The assay plates were then incubated at room temperature for 1 hour, washed 3 times with 150 μl/well TBST buffer, and 25 μl/well secondary detection antibody, SULFO-TAG anti-rabbit antibody (MSD, R32AB-1) were added. The assay plates were then incubated at room temperature for 1 hour, washed 3 times with 150 μl/well TBST buffer, and 150 μl/well MSD reading buffer (MSD, R92TC-2) were added. The plates were then analyzed by an MSD reader. The data was analyzed by GraphPad Prism and the dose dependent STAT6 degradation was fit using the four-parameter inhibitor vs. response nonlinear regression.
The letter codes for DC50 (nM) include: A (<1 nM); B (1-10 nM); C (>10-100 nM); D (>100-1000 nM); E (>1000 nM); and F (not tested). The letter codes for Dmax (oo) include: A (>90%); B (>70-90%); C (>50-70%); D ([…]); and F (not tested).

Row | SMILES | pIC50 ([1]; 30 minutes at room temperature) | DC50 (STAT6) [nM] | Dmax (STAT6) [%] | pIC50 ([1]; HTRF binding)
1 | CN(C)C(=O)c1cc2c(F)c(C3CCCN(C(=O)CCn4cccn4)C3)cc(-c3ccc(N4CCN(CCc5ccc(C6CCC(=O)NC6=O)c(Cl)c5)CC4)cc3)c2o1 (single isomer, unassigned) [Example I-281] | 6.00 to 7.00 | 10 to 100 | 70 to 90 | 
2 | CN(C)C(=O)c1cc2c(-c3ccc(C4CCN(c5ccc([C@@H]6CCC(=O)NC6=O)cc5F)CC4)cc3)cc(C3=CCCN(C(=O)CCn4cccn4)C3)c(F)c2[nH]1 (single isomer, unassigned) [Example I-742] |  | < 1 | > 90 | > 7.00
3 | CN(C)C(=O)c1cc2c(-c3ccc(C4CCN(c5ccc([C@H]6CCC(=O)NC6=O)cc5F)CC4)cc3)cc(C3=CCCN(C(=O)CCn4cccn4)C3)c(F)c2[nH]1 (single isomer, unassigned) [Example I-743] |  | < 1 | > 90 | > 7.00
4 | COc1cc(N2CCN(c3ccc(-c4cc(C5=CCCN(C(=O)CCn6cccn6)C5)c(F)c5[nH]c(C(=O)N(C)C)cc45)c(F)c3F)CC2)c(F)cc1N[C@@H]1CCC(=O)NC1=O (single isomer, unassigned) [Example I-744] |  | < 1 | > 90 | > 7.00
5 | COc1cc(N2CCN(c3ccc(-c4cc(C5=CCCN(C(=O)CCn6cccn6)C5)c(F)c5[nH]c(C(=O)N(C)C)cc45)c(F)c3F)CC2)c(F)cc1N[C@H]1CCC(=O)NC1=O (single isomer, unassigned) [Example I-745] |  | < 1 | > 90 | > 7.00
6 | Cc1cc(C2CCN(c3cccc4c3n(C)c(=O)n4[C@@H]3CCC(=O)NC3=O)CC2)ccc1-c1cc(C2=CCCN(C(=O)C(C)C)C2)c(F)c2[nH]c(C(=O)N(C)C)cc12 (single isomer, unassigned) [Example I-790] |  | 1 to 10 | > 90 | 5.00 to 6.00
7 | Cc1cc(C2CCN(c3cccc4c3n(C)c(=O)n4[C@H]3CCC(=O)NC3=O)CC2)ccc1-c1cc(C2=CCCN(C(=O)C(C)C)C2)c(F)c2[nH]c(C(=O)N(C)C)cc12 (single isomer, unassigned) [Example I-791] |  | < 1 | > 90 | 5.00 to 6.00
8 | COc1cc(N2CCC(c3ccc(-c4cc(C5=CCCN(C(=O)CCn6cccn6)C5)c(F)c5[nH]c(C(=O)N(C)C)cc45)c(OC(F)(F)F)c3)CC2)c(F)cc1N[C@@H]1CCC(=O)NC1=O (single isomer, unassigned) [Example I-792] |  | 1 to 10 | 70 to 90 | > 7.00
9 | COc1cc(N2CCC(c3ccc(-c4cc(C5=CCCN(C(=O)CCn6cccn6)C5)c(F)c5[nH]c(C(=O)N(C)C)cc45)c(OC(F)(F)F)c3)CC2)c(F)cc1N[C@H]1CCC(=O)NC1=O (single isomer, unassigned) [Example I-793] |  | 1 to 10 | 70 to 90 | > 7.00
10 | COc1cc(N2CCN(c3ccc(-c4cc(C5=CCCN(C(=O)CCn6cccn6)C5)c(F)c5[nH]c(C(=O)N(C)C)cc45)cc3)CC2)c(F)cc1N[C@@H]1CCC(=O)NC1=O (single isomer, unassigned) [Example I-794] |  | < 1 | 70 to 90 | 
11 | COc1cc(N2CCN(c3ccc(-c4cc(C5=CCCN(C(=O)CCn6cccn6)C5)c(F)c5[nH]c(C(=O)N(C)C)cc45)cc3)CC2)c(F)cc1N[C@H]1CCC(=O)NC1=O (single isomer, unassigned) [Example I-795] |  | < 1 | > 90 | > 7.00
12 | CN(C)C(=O)c1cc2c(-c3ccc(C4CCN(c5ccc(N[C@H]6CCC(=O)NC6=O)cc5F)CC4)cc3)cc(C3=CCCN(C(=O)CCn4cccn4)C3)c(F)c2[nH]1 (single isomer, unassigned) [Example I-796] |  | < 1 | 70 to 90 | > 7.00
13 | CN(C)C(=O)c1cc2c(-c3ccc(C4CCN(c5ccc(N[C@@H]6CCC(=O)NC6=O)cc5F)CC4)cc3)cc(C3=CCCN(C(=O)CCn4cccn4)C3)c(F)c2[nH]1 (single isomer, unassigned) [Example I-797] |  | 1 to 10 | 70 to 90 | > 7.00
14 | CC(=O)N1CCC=C(c2cc(-c3ccc(C4CCN(c5cccc6c5n(C)c(=O)n6C5CCC(=O)NC5=O)CC4)cc3C)c3cc(C(=O)N(C)C)[nH]c3c2F)C1 (stereo not drawn) [Example I-455, 6-(1-Acetyl-1,2,5,6-tetrahydropyridin-3-yl)-4-(4-(1-(1-(2,6-dioxopiperidin-3-yl)-3-methyl-2-oxo-2,3-dihydro-1H-benzo[d]1734midazole-4-yl)piperidin-4-yl)-2-methylphenyl)-7-fluoro-N,N-dim ethyl-1H-indole-2-carboxamide] |  | < 1 | > 90 | 5.00 to 6.00
15 | COc1cc(N2CCN(CCOCC3CCN(c4ccnc(N5CC[C@@H]6[C@H]5CCCN6c5cccc(F)c5)c4)CC3)CC2)ccc1-c1cc(C2=CCCN(C(=O)CCn3ccnn3)C2)c(F)c2[nH]c(C(=O)N(C)C)cc12 [Example I-1049, 4-[4-(4-{2-[(1-{2-[(3aR,7aR)-4-(3-fluorophenyl)-hexahydro-2H-pyrrolo[3,2-b]pyridin-1-yl]pyridin-4-yl}piperidin-4-yl)methoxy]ethyl}piperazin-1-yl)-2-methoxyphenyl]-7-fluoro-N,N-dimethyl-6-{1-[3-(1,2,3-triazol-1-yl)propanoyl]-5,6-dihydro-2H-pyridin-3-yl}-1H-indole-2-carboxamide] |  |  |  | > 7.00
